# The supplement of paper PMC8617591
# What was measured:
# [1] = system: Mycobacterium tuberculosis Erdman (autoluminescent); experiment: Einf, fitted maximum growth inhibition of three-drug combination (fraction); higher = stronger maximal inhibition
# Experimental: (§1)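 DiaMOND equipotent three-drug combination dose responses (10 doses, 1.5- or 2-fold spacing, centred on IC90) against autoluminescent M. tuberculosis Erdman in 8 in vitro models. Read-out is OD600, or luminescence for the intracellular and dormancy models, normalised to untreated wells. Hill-fit Einf, AUC25 and GRinf are potency metrics; FIC50 and FIC90 are total Loewe fractional inhibitory concentrations as log2 (negative = synergy).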
# [2] = system: Mycobacterium tuberculosis Erdman (autoluminescent); experiment: AUC25, normalised area under dose response up to IC25 (three-drug combination) (fraction (0-1)); higher = more potent at low dose
# Experimental: as §1
# [3] = system: Mycobacterium tuberculosis Erdman (autoluminescent); experiment: GRinf, maximum normalised growth rate inhibition (three-drug combination) (unitless (-1 to 1)); higher = less effect (negative = killing)
# Experimental: as §1
# [4] = system: Mycobacterium tuberculosis Erdman (autoluminescent); experiment: total FIC90 (Loewe) at 90% inhibition, three-drug combination (log2); higher = more antagonistic
# Experimental: as §1
# [5] = system: Mycobacterium tuberculosis Erdman (autoluminescent); experiment: total FIC50 (Loewe) at 50% inhibition, three-drug combination (log2); higher = more antagonistic
# Experimental: as §1
# [6] = in vitro model: acidic pH 5.7, time point: constant (~7 days, model-specific)
# [7] = in vitro model: acidic pH 5.7, time point: terminal (~4-5 doublings, model-specific)
# [8] = in vitro model: butyrate, time point: constant (~7 days, model-specific)
# [9] = in vitro model: butyrate, time point: terminal (~4-5 doublings, model-specific)
# [10] = in vitro model: cholesterol 0.05 mM, time point: constant (~7 days, model-specific)
# [11] = in vitro model: cholesterol 0.05 mM, time point: terminal (~4-5 doublings, model-specific)
# [12] = in vitro model: cholesterol-high 0.2 mM, time point: constant (~7 days, model-specific)
# [13] = in vitro model: cholesterol-high 0.2 mM, time point: terminal (~4-5 doublings, model-specific)
# [14] = in vitro model: dormancy (butyrate + nitrate, low O2), time point: constant (~7 days, model-specific)
# [15] = in vitro model: dormancy (butyrate + nitrate, low O2), time point: terminal (~4-5 doublings, model-specific)
# [16] = in vitro model: intracellular J774, time point: constant = terminal
# [17] = in vitro model: standard 7H9 glycerol, time point: constant = terminal
# [18] = in vitro model: valerate, time point: constant (~7 days, model-specific)
# [19] = in vitro model: valerate, time point: terminal (~4-5 doublings, model-specific)
smiles,measurement,setting,value
COc1c(N2C[C@@H]3CCCN[C@@H]3C2)c(F)cc2c(=O)c(C(=O)O)cn(C3CC3)c12 [moxifloxacin] + CO[C@H]1/C=C/O[C@@]2(C)Oc3c(C)c(O)c4c(O)c(c(/C=N/N5CCN(C6CCCC6)CC5)c(O)c4c3C2=O)NC(=O)/C(C)=C\C=C\[C@H](C)[C@H](O)[C@@H](C)[C@@H](O)[C@@H](C)[C@H](OC(C)=O)[C@@H]1C [rifapentine] + CO[C@H]1/C=C/O[C@@]2(C)Oc3c(C)c(O)c4c(O)c(c(/C=N/N5CCN(C)CC5)c(O)c4c3C2=O)NC(=O)/C(C)=C\C=C\[C@H](C)[C@H](O)[C@@H](C)[C@@H](O)[C@@H](C)[C@H](OC(C)=O)[C@@H]1C [rifampicin],Einf,[1]; [6],0.838
same,Einf,[1]; [7],0.973
same,Einf,[1]; [8],0.883
same,Einf,[1]; [9],0.952
same,Einf,[1]; [10],0.593
same,Einf,[1]; [11],0.891
same,Einf,[1]; [12],0.825
same,Einf,[1]; [13],1
same,Einf,[1]; [14],0.868
same,Einf,[1]; [15],0.977
same,Einf,[1]; [16],0.952
same,Einf,[1]; [17],0.821
same,Einf,[1]; [18],0.846
same,Einf,[1]; [19],0.934
same,AUC25,[2]; [6],0.0724
same,AUC25,[2]; [7],0.0677
same,AUC25,[2]; [8],0.102
same,AUC25,[2]; [9],0.0922
same,AUC25,[2]; [10],0.101
same,AUC25,[2]; [11],0.0956
same,AUC25,[2]; [12],0.0581
same,AUC25,[2]; [13],0.0631
same,AUC25,[2]; [14],0.0643
same,AUC25,[2]; [15],0.0509
same,AUC25,[2]; [17],0.0451
same,AUC25,[2]; [18],0.0421
same,AUC25,[2]; [19],0.0285
same,GRinf,[3]; [6],0.0128
same,GRinf,[3]; [7],-0.122
same,GRinf,[3]; [8],0.109
same,GRinf,[3]; [9],0.0591
same,GRinf,[3]; [10],0.0182
same,GRinf,[3]; [11],-0.0633
same,GRinf,[3]; [12],-0.0146
same,GRinf,[3]; [13],-0.758
same,GRinf,[3]; [14],0.252
same,GRinf,[3]; [15],-0.14
same,GRinf,[3]; [16],-0.11
same,GRinf,[3]; [17],0.307
same,GRinf,[3]; [18],0.0605
same,GRinf,[3]; [19],0.041
same,total FIC90,[4]; [7],0.137
same,total FIC90,[4]; [8],2.35
same,total FIC90,[4]; [9],0.559
same,total FIC90,[4]; [11],1.76
same,total FIC90,[4]; [13],0.468
same,total FIC90,[4]; [14],0.199
same,total FIC90,[4]; [15],0.615
same,total FIC90,[4]; [16],1.1
same,total FIC90,[4]; [19],0.3
same,total FIC50,[5]; [6],0.153
same,total FIC50,[5]; [7],0.25
same,total FIC50,[5]; [8],0.138
same,total FIC50,[5]; [9],0.217
same,total FIC50,[5]; [10],0.609
same,total FIC50,[5]; [11],0.426
same,total FIC50,[5]; [12],0.356
same,total FIC50,[5]; [13],0.707
same,total FIC50,[5]; [14],0.441
same,total FIC50,[5]; [15],0.539
same,total FIC50,[5]; [17],0.381
same,total FIC50,[5]; [18],0.542
same,total FIC50,[5]; [19],0.547
COc1c(N2C[C@@H]3CCCN[C@@H]3C2)c(F)cc2c(=O)c(C(=O)O)cn(C3CC3)c12 [moxifloxacin] + NC(=O)c1cnccn1 [pyrazinamide] + CO[C@H]1/C=C/O[C@@]2(C)Oc3c(C)c(O)c4c(O)c(c(/C=N/N5CCN(C6CCCC6)CC5)c(O)c4c3C2=O)NC(=O)/C(C)=C\C=C\[C@H](C)[C@H](O)[C@@H](C)[C@@H](O)[C@@H](C)[C@H](OC(C)=O)[C@@H]1C [rifapentine],Einf,[1]; [6],0.916
same,Einf,[1]; [7],0.996
same,Einf,[1]; [8],0.907
same,Einf,[1]; [9],0.961
same,Einf,[1]; [10],0.617
same,Einf,[1]; [11],0.913
same,Einf,[1]; [12],0.947
same,Einf,[1]; [13],1
same,Einf,[1]; [14],0.862
same,Einf,[1]; [15],0.979
same,Einf,[1]; [16],0.968
same,Einf,[1]; [17],0.882
same,Einf,[1]; [18],0.81
same,Einf,[1]; [19],0.929
same,AUC25,[2]; [6],0.0979
same,AUC25,[2]; [7],0.0717
same,AUC25,[2]; [8],0.118
same,AUC25,[2]; [9],0.0899
same,AUC25,[2]; [10],0.116
same,AUC25,[2]; [11],0.0984
same,AUC25,[2]; [12],0.0917
same,AUC25,[2]; [13],0.0805
same,AUC25,[2]; [14],0.0716
same,AUC25,[2]; [15],0.07
same,AUC25,[2]; [17],0.0577
same,AUC25,[2]; [18],0.0789
same,AUC25,[2]; [19],0.0473
same,GRinf,[3]; [6],-0.164
same,GRinf,[3]; [7],-0.192
same,GRinf,[3]; [8],0.0713
same,GRinf,[3]; [9],0.0339
same,GRinf,[3]; [10],-0.407
same,GRinf,[3]; [11],-0.171
same,GRinf,[3]; [12],-0.459
same,GRinf,[3]; [13],-0.837
same,GRinf,[3]; [14],0.214
same,GRinf,[3]; [15],-0.13
same,GRinf,[3]; [16],-0.65
same,GRinf,[3]; [17],0.0649
same,GRinf,[3]; [18],0.162
same,GRinf,[3]; [19],0.0611
same,total FIC90,[4]; [7],-0.209
same,total FIC90,[4]; [8],0.846
same,total FIC90,[4]; [9],1.19
same,total FIC90,[4]; [13],1.05
same,total FIC90,[4]; [14],0.265
same,total FIC90,[4]; [15],1.04
same,total FIC90,[4]; [16],0.713
same,total FIC90,[4]; [19],0.693
same,total FIC50,[5]; [6],0.396
same,total FIC50,[5]; [7],0.991
same,total FIC50,[5]; [8],0.589
same,total FIC50,[5]; [9],0.781
same,total FIC50,[5]; [11],1.31
same,total FIC50,[5]; [12],0.921
same,total FIC50,[5]; [13],1.23
same,total FIC50,[5]; [14],0.262
same,total FIC50,[5]; [15],0.473
same,total FIC50,[5]; [18],0.849
same,total FIC50,[5]; [19],0.778
COc1c(N2C[C@@H]3CCCN[C@@H]3C2)c(F)cc2c(=O)c(C(=O)O)cn(C3CC3)c12 [moxifloxacin] + NC(=O)c1cnccn1 [pyrazinamide] + CO[C@H]1/C=C/O[C@@]2(C)Oc3c(C)c(O)c4c(O)c(c(/C=N/N5CCN(C)CC5)c(O)c4c3C2=O)NC(=O)/C(C)=C\C=C\[C@H](C)[C@H](O)[C@@H](C)[C@@H](O)[C@@H](C)[C@H](OC(C)=O)[C@@H]1C [rifampicin],Einf,[1]; [6],0.851
same,Einf,[1]; [7],0.99
same,Einf,[1]; [8],0.869
same,Einf,[1]; [9],0.977
same,Einf,[1]; [10],0.6
same,Einf,[1]; [11],0.868
same,Einf,[1]; [12],0.912
same,Einf,[1]; [13],1
same,Einf,[1]; [14],0.87
same,Einf,[1]; [15],0.978
same,Einf,[1]; [16],0.99
same,Einf,[1]; [17],0.781
same,Einf,[1]; [18],0.785
same,Einf,[1]; [19],0.909
same,AUC25,[2]; [6],0.0731
same,AUC25,[2]; [7],0.0678
same,AUC25,[2]; [8],0.119
same,AUC25,[2]; [9],0.114
same,AUC25,[2]; [10],0.096
same,AUC25,[2]; [11],0.0868
same,AUC25,[2]; [12],0.0908
same,AUC25,[2]; [13],0.0879
same,AUC25,[2]; [14],0.0806
same,AUC25,[2]; [15],0.0656
same,AUC25,[2]; [17],0.0452
same,AUC25,[2]; [18],0.0626
same,AUC25,[2]; [19],0.0319
same,GRinf,[3]; [6],-0.155
same,GRinf,[3]; [7],-0.208
same,GRinf,[3]; [8],0.125
same,GRinf,[3]; [9],-0.00285
same,GRinf,[3]; [10],0.1
same,GRinf,[3]; [11],-0.00841
same,GRinf,[3]; [12],-0.393
same,GRinf,[3]; [13],-0.949
same,GRinf,[3]; [14],0.204
same,GRinf,[3]; [15],-0.115
same,GRinf,[3]; [16],-0.539
same,GRinf,[3]; [17],0.36
same,GRinf,[3]; [18],0.176
same,GRinf,[3]; [19],0.127
same,total FIC90,[4]; [7],-0.913
same,total FIC90,[4]; [8],2.29
same,total FIC90,[4]; [9],1.3
same,total FIC90,[4]; [13],1.47
same,total FIC90,[4]; [14],-0.0278
same,total FIC90,[4]; [15],0.407
same,total FIC90,[4]; [16],0.76
same,total FIC90,[4]; [19],0.657
same,total FIC50,[5]; [6],0.177
same,total FIC50,[5]; [7],0.423
same,total FIC50,[5]; [8],0.49
same,total FIC50,[5]; [9],0.525
same,total FIC50,[5]; [11],1.23
same,total FIC50,[5]; [12],1.26
same,total FIC50,[5]; [13],1.58
same,total FIC50,[5]; [14],0.465
same,total FIC50,[5]; [15],0.411
same,total FIC50,[5]; [18],0.864
same,total FIC50,[5]; [19],0.853
